For 45 molecules, EC50 results are on record in patent US20230357253A1, “AGONISTS OF STIMULATOR OF INTERFERON GENES STING” (THE SCRIPPS RESEARCH INSTITUTE, priority 2020, published 2023).

The experiment concerns THP-1 Lucia ISG cells. Put plainly: ISRE-luciferase assay (ISG-LUC activation). Type of experiment: cell-based. Particulars: Homo sapiens, THP1-Lucia ISG, 24 hours, luciferase reporter. The protocol:
ISRE-luciferase assay. THP-1 Lucia ISG cells were resuspended in low-serum growth media (2% FBS) at a density of 5×10^5 cells/ml and treated with test article or vehicle (DMSO). 50 μL of cells were seeded into each well of a 384-well white greiner plates and incubated for 24 hours. To evaluate expression of the luciferase reporter, 30 μl of Quanti-luc (Invivogen) detection reagent was added to each well and luminescence was read using an Envision plate reader (Perkin Elmer) set with an integration time of 0.1 seconds. For each cell type, luminescence signals for test article samples were normalized to vehicle-treated samples and reported as relative light units (RLU).

In general, EC50 refers to the concentration needed to bring the measured effect to its halfway point. `O=C(Nc1cc(CCCc2cc(NC(=O)c3ccc(-n4ccnc4)nn3)c(C(=O)O)cc2F)c(F)cc1C(=O)O)c1ccc(-n2ccnc2)nn1` [Compound 3, 4,4′-(propane-1,3-diyl)bis(2-(6-(1H-imidazol-1-yl)pyridazine-3-carbox-amido)-5-fluorobenzoic acid)] had an EC50 of 50 to 500 nM.

In the case of `O=C(Nc1cc(CCOc2cc(NC(=O)c3ccc(-c4cn[nH]c4)nn3)c(C(=O)O)cc2F)c(F)cc1C(=O)O)c1ccc(-c2cn[nH]c2)nn1` [Compound 4, 2-(6-(1H-pyrazol-4-yl)pyridazine-3-carboxamido)-4-(5-(6-(1H-pyrazol-4-yl)pyridazine-3-carboxamido)-4-carboxy-2-fluorophenethoxy)-5-fluorobenzoic acid], the EC50 was 50 to 500 nM.

Molecule `CC(CCOc1cc(NC(=O)c2ccc(-n3ccnc3)nn2)c(C(=O)O)cc1F)Oc1cc(NC(=O)c2ccc(-n3ccnc3)nn2)c(C(=O)O)cc1F` (stereo not drawn) [Compound 5, 4,4′-(butane-1,3-diylbis(oxy))bis(2-(6-(1H-imidazol-1-yl)pyridazine-3-carboxamido)-5-fluorobenzoic acid)] had an EC50 of 50 to 500 nM.

With `COc1cc(C(=O)O)c(NC(=O)c2ccc(-n3ccnc3)nn2)cc1OCCc1cc(C(=O)O)c(NC(=O)c2ccc3nnnn3n2)cc1Cl` [Compound 6, 2-(6-(1H-imidazol-1-yl)pyridazine-3-carboxamido)-4-(5-carboxy-2-chloro-4-(tetrazolo[1,5-b]pyridazine-6-carboxamido)phenethoxy)-5-methoxybenzoic acid], the EC50 fell in the range of 50 to 500 nM.

Turning to `O=c1oc(-c2ccc(-n3ccnc3)nn2)nc2c(F)c(OCCCCOc3c(F)cc4c(=O)oc(-c5ccc(-n6ccnc6)nn5)nc4c3F)c(F)cc12` [Compound 9, 7,7′-(butane-1,4-diylbis(oxy))bis(2-(6-(1H-imidazol-1-yl)pyridazin-3-yl)-6,8-difluoro-4H-benzo[d][1,3]oxazin-4-one)], the EC50 lay within 500 to 5000 nM.

As to `O=C(Nc1cc(OCCCOc2cc(C(=O)O)c(NC(=O)c3ccc(-n4ccnc4)nn3)cc2F)c(F)cc1C(=O)O)c1ccc(-n2ccnc2)nn1` [Compound 10, 2-(6-(1H-imidazol-1-yl)pyridazine-3-carboxamido)-5-(3-(5-(6-(1H-imidazol-1-yl)pyridazine-3-carboxamido)-4-carboxy-2-fluorophenoxy)propoxy)-4-fluoro-benzoic acid], the EC50 was in the range of 50 to 500 nM.

`O=C(Nc1cc(CCCc2ccc(NC(=O)c3ccc4nnnn4n3)c(C(=O)O)c2)ccc1C(=O)O)c1ccc2nnnn2n1` [Compound 13] yielded an EC50 of 500 to 5000 nM.

Take `O=C(Nc1cc(CCCc2ccc(C(=O)O)c(NC(=O)c3ccc4nnnn4n3)c2)ccc1C(=O)O)c1ccc2nnnn2n1` [Compound 14]: the EC50 is 500 to 5000 nM.

Take `O=C(Nc1cc(OCCCCOc2cc(NC(=O)c3ccc(-n4ccnc4)nn3)c(C(=O)O)cc2F)ccc1C(=O)O)c1ccc(-n2ccnc2)nn1` [Compound 19]: the EC50 lay in the range of 500 to 5000 nM.

`COC(=O)c1cc(Cl)c(OCCCCOc2cc(NC(=O)c3ccc(-n4ccnc4)nn3)c(C(=O)OC)cc2Cl)cc1NC(=O)c1ccc(-n2ccnc2)nn1` [Compound 23] displayed an EC50 below 50 nM.

`O=C(Nc1cc(OCCOc2cc(C(=O)O)c(NC(=O)c3ccc4nnnn4n3)cc2F)ccc1C(=O)O)c1ccc2nnnn2n1` [Compound 26] yielded an EC50 above 5000 nM.

In the case of `O=C(Nc1cc(OCCCOc2cc(C(=O)O)c(NC(=O)c3ccc4nnnn4n3)cc2F)c(F)cc1C(=O)O)c1ccc2nnnn2n1` [Compound 33], the EC50 was above 5000 nM.

For `COC(=O)c1cc(F)c(OCCCCOc2cc(NC(=O)c3ccc(-n4ccnc4)nn3)c(C(=O)OC)cc2F)cc1NC(=O)c1ccc(-n2ccnc2)nn1` [Compound 34], the EC50 is above 5000 nM.

`O=C(Nc1cc(OCCCCOc2ccc(C(=O)O)c(NC(=O)c3ccc(-n4ccnc4)nn3)c2)ccc1C(=O)O)c1ccc(O)nn1` [Compound 35] returned a 50% effective concentration (EC50) above 5000 nM.

With `COC(=O)c1cc(F)c(OCCCCOc2c(F)cc(C(=O)OC)c(NC(=O)c3ccc(-n4ccnc4)nn3)c2F)c(F)c1NC(=O)c1ccc(-n2ccnc2)nn1` [Compound 36], the EC50 is below 50 nM.

As for `O=C(Nc1c(C(=O)O)cc(F)c(OCCCCOc2c(F)cc(C(=O)O)c(NC(=O)c3ccc(-n4ccnc4)nn3)c2F)c1F)c1ccc(-n2ccnc2)nn1` [Compound 38], the EC50 fell in the range of 50 to 500 nM.

For the molecule `O=C(Nc1c(C(=O)O)cc(F)c(OCCCCOc2c(F)cc(C(=O)O)c(NC(=O)c3ccc(-n4ccnc4)nn3)c2F)c1F)c1ccc(O)nn1` [Compound 39], the EC50 is above 5000 nM.

Turning to `O=c1oc(-c2ccc(-n3ccnc3)nn2)nc2cc(OCCCCOc3cc4nc(-c5ccc(-n6ccnc6)nn5)oc(=O)c4cc3F)c(F)cc12` [Compound 40], the EC50 was below 50 nM.

For `COc1cc2c(=O)oc(-c3ccc(-n4ccnc4)nn3)nc2cc1OCCCCOc1cc2nc(-c3ccc(-n4ccnc4)nn3)oc(=O)c2cc1OC` [Compound 41], the concentration for a half-maximal effect (EC50) is below 50 nM.

Turning to `O=C(Nc1cc(OCCCCOc2ccc(C(=O)O)c(NC(=O)c3ccc(-n4ccnc4)nn3)c2)ccc1C(=O)O)c1cccnn1` [Compound 44], the EC50 was above 5000 nM.

As to `O=C(Nc1cc(OCCCCOc2cnc(C(=O)O)c(NC(=O)c3ccc(-n4ccnc4)nn3)c2)cnc1C(=O)O)c1ccc(-n2ccnc2)nn1` [Compound 45], the EC50 was above 5000 nM.

`COC(=O)c1cc(F)c(CCCc2cc(NC(=O)c3ccc(-n4ccnc4)nn3)c(C(=O)OC)cc2F)cc1NC(=O)c1ccc(-n2ccnc2)nn1` [Compound 51] showed an EC50 below 50 nM.

For `COC(=O)c1ccc(CCCc2ccc(NC(=O)c3ccc(-n4ccnc4)nn3)c(C(=O)OC)c2)cc1NC(=O)c1ccc(-n2ccnc2)nn1` [Compound 53], the EC50 is above 5000 nM.

Turning to `COC(=O)c1cc(F)c(CCCc2cc(NC(=O)c3ccc(-n4ccnc4)nn3)c(C(=O)OC)cc2OC)cc1NC(=O)c1ccc(-n2ccnc2)nn1` [Compound 54], the EC50 was below 50 nM.

`COc1cc(C(=O)O)c(NC(=O)c2ccc(-n3ccnc3)nn2)cc1CCCc1ccc(C(=O)O)c(NC(=O)c2ccc(-n3ccnc3)nn2)c1` [Compound 56] had an EC50 of 50 to 500 nM.

Turning to `COc1cc(C(=O)O)c(NC(=O)c2ccc(-n3ccnc3)nn2)cc1CCCc1cc(NC(=O)c2ccc(-n3ccnc3)nn2)c(C(=O)O)cc1F` [Compound 59], the concentration for a half-maximal effect (EC50) lay within 50 to 500 nM.

Turning to `O=C(Nc1cc(CCCc2ccc(C(=O)O)c(NC(=O)c3ccc4nnnn4n3)c2)ccc1C(=O)O)c1ccc(-n2ccnc2)nn1` [Compound 63], the EC50 is above 5000 nM.

`O=C(Nc1cc(CCCc2cc(NC(=O)c3ccc(-n4ccnc4)nn3)c(C(=O)O)cc2Cl)ccc1C(=O)O)c1ccc(-n2ccnc2)nn1` [Compound 66] yielded an EC50 of 50 to 500 nM.

Molecule `O=C(Nc1cc(CCCc2cc(NC(=O)c3ccc4nnnn4n3)c(C(=O)O)cc2F)c(F)cc1C(=O)O)c1ccc(-n2ccnc2)nn1` [Compound 67] gave an EC50 of 50 to 500 nM.

The molecule `O=C(Nc1cc(CCCc2cc(NC(=O)c3ccc(-n4ccnc4)nn3)c(C(=O)O)cc2F)ccc1C(=O)O)c1ccc(-n2ccnc2)nn1` [Compound 68] gave an EC50 of 50 to 500 nM.

The molecule `O=C(Nc1cc(CCCc2cc(C(=O)O)c(NC(=O)c3ccc(-n4ccnc4)nn3)cc2F)c(F)cc1C(=O)O)c1ccc(-n2ccnc2)nn1` [Compound 70] displayed an EC50 of 500 to 5000 nM.

`O=C(Nc1cc(CCCc2cc(C(=O)O)c(NC(=O)c3ccc(-n4ccnc4)nn3)cc2F)ccc1C(=O)O)c1ccc(-n2ccnc2)nn1` [Compound 78] came in with an EC50 of 50 to 500 nM.

Molecule `O=C(Nc1cc(CCCc2cc(C(=O)O)c(NC(=O)c3ccc4nnnn4n3)cc2F)c(F)cc1C(=O)O)c1ccc(-n2ccnc2)nn1` [Compound 90] came in with an EC50 of 500 to 5000 nM.

Regarding `O=C(Nc1cc(F)c(CCCc2cc(NC(=O)c3ccc4nnnn4n3)c(C(=O)O)cc2F)cc1C(=O)O)c1ccc(-n2ccnc2)nn1` [Compound 94], the EC50 lay in the range of 50 to 500 nM.

Turning to `COC(=O)c1cc(Cl)c(CCCc2ccc(C(=O)OC)c(NC(=O)c3ccc4nnnn4n3)c2)cc1NC(=O)c1ccc(-n2ccnc2)nn1` [Compound 106], the EC50 is below 50 nM.

With `COC(=O)c1cc(F)c(CCOc2cc(NC(=O)c3ccc4nnnn4n3)c(C(=O)OC)cc2F)cc1NC(=O)c1ccc(-n2ccnc2)nn1` [Compound 113], the EC50 is below 50 nM.

With `O=C(Nc1cc(CCCOc2cc(NC(=O)c3ccc(-n4ccnc4)nn3)c(C(=O)O)cc2F)c(F)cc1C(=O)O)c1ccc(-n2ccnc2)nn1` [Compound 125], the EC50 was in the range of 500 to 5000 nM.

In turn, `O=C(Nc1cc(CCCOc2cc(NC(=O)c3ccc4nnnn4n3)c(C(=O)O)cc2F)c(F)cc1C(=O)O)c1ccc(-n2ccnc2)nn1` [Compound 126] had an EC50 of 500 to 5000 nM.

In the case of `O=C(Nc1cc(CCCCc2cc(C(=O)O)c(NC(=O)c3ccc(-n4ccnc4)nn3)cc2F)c(F)cc1C(=O)O)c1ccc(-n2ccnc2)nn1` [Compound 127], the EC50 fell in the range of 500 to 5000 nM.

`COc1cc(C(=O)O)c(NC(=O)c2ccc(-n3ccnc3)nn2)cc1OCCc1cc(C(=O)O)c(NC(=O)c2ccc(-n3ccnc3)nn2)cc1C#N` [Compound 130] returned an EC50 of 50 to 500 nM.

In the case of `COC(=O)Cc1cc(F)c(CCOc2cc(NC(=O)c3ccc(-n4ccnc4)nn3)c(C(=O)OC)cc2F)cc1NC(=O)c1ccc(-n2ccnc2)nn1` [Compound 131], the EC50 was 500 to 5000 nM.

`O=C(Nc1cc(CSCc2cc(NC(=O)c3ccc(-n4ccnc4)nn3)c(C(=O)O)cc2F)c(F)cc1C(=O)O)c1ccc(-n2ccnc2)nn1` [Compound 132] gave a concentration for a half-maximal effect (EC50) below 50 nM.

Regarding `COc1nc(C(=O)O)c(NC(=O)c2ccc(-n3ccnc3)nn2)cc1CCCc1cc(NC(=O)c2ccc(-n3ccnc3)nn2)c(C(=O)O)cc1F` [Compound 134], the EC50 is 50 to 500 nM.

Take `O=C(Nc1cc(CCOc2cc(C(=O)O)c(NC(=O)c3ccc(-n4ccnc4)nn3)cc2F)c(F)cc1C(=O)O)c1ccc(-n2ccnc2)nn1` [Compound 141]: the EC50 was in the range of 50 to 500 nM.

`O=C(Nc1cc(OCCc2cc(C(=O)O)c(NC(=O)c3ccc(-n4ccnc4)nn3)cc2F)c(F)cc1C(=O)O)c1ccc(-n2ccnc2)nn1` [Compound 144]: the EC50 was in the range of 50 to 500 nM.
